# From patent US4460781A, “4-(2-Benzoylphenyl-1-pyazole and 4-(2-benzoylphenyl)-1-pyrazoline derivatives” (Hoffmann-La Roche Inc., priority 1983, dated 1984)
# Assays:
# [1] = tested on: Cats; experiment: Unanesthetized Cat (minimum symptoms, usually ataxia); type: in vivo; conditions: Felis catus, po, cats treated orally
# Experimental: Cats are treated orally and observed for minimum symptoms--usually ataxia. One cat is used at a dose of 50 mg/kg. If activity is present, up to three cats/dose are used. Results are given as minimum effective dose.
# [2] = tested on: male mice; experiment: Inclined Screen (paralyzing effects, sliding off the screen); type: in vivo; conditions: Mus musculus, groups of 6, at least 4 hours, maximum dose of 500 mg/kg, read-out: Inclined Screen (PD50)
# Experimental: Groups of 6 male mice are given the test drug (maximum dose of 500 mg/kg) and then are left on the inclined screen at least 4 hours for observation of paralyzing effects severe enough to cause them to slide off the screen. If activity is observed, additional doses are taken until at least two are reached at which some, but not all of the animals slide off the screen. Doses at which mice fall off the screen due to toxicity or excitation are not included in the calculation of PD50.
# [3] = Toxicity (LD50) (PO); conditions: in vivo
# [4] = tested on: mice; experiment: Footshock (blocking of shock-elicited fighting in pairs of mice); type: in vivo; conditions: Mus musculus, pretreated 1 hour, 3 out of 3 pairs blocked from fighting, maximum of 100 mg/kg, read-out: Footshock (100% blocking dose)
# Experimental: A pair of mice is confined under a one liter beaker placed on a grid which presents shock to the feet. At least 5 fighting episodes are elicited in a two-minute period. Pairs of mice are marked and pretreated 1 hour to a second shocking. Logarithmic dose intervals are utilized up to a maximum of 100 mg/kg. At the 100% blocking dose, 3 out of 3 pairs must be blocked from fighting.
Compound,minimal effective dose [1] [mg/kg],ED50 [2] [mg/kg],LD50 [3] [mg/kg],ED100 [4] [mg/kg]
"Cc1[nH]nc2c1-c1ccc([N+](=O)[O-])cc1C(c1ccccc1Cl)=NC2 [6-(2-Chlorophenyl)-3-methyl-8-nitro-2H,4H-pyrazolo[3,4-d][2]benzazepine]",250,400,> 1000,
"OCCn1cc2c(n1)CN=C(c1ccccc1)c1cc(Cl)ccc1-2 [8-Chloro-2-(2-hydroxyethyl)-6-phenyl-2H,4H-pyrazolo[3,4-d][2]benzazepine]",20,40,750,100
"Clc1ccc2c(c1)C(c1ccccc1Cl)=NCc1n[nH]cc1-2 [8-Chloro-6-(2-chlorophenyl)-2H,4H-pyrazolo[3,4-d][2]benzazepine]",10,143,800,25
"Fc1ccccc1C1=NCc2n[nH]cc2-c2ccc(Cl)cc21 [8-Chloro-6-(2-fluorophenyl)-2H,4H-pyrazolo[3,4-d][2]benzazepine]",2,66,760,25
"CNC(=O)n1cc2c(n1)CN=C(c1ccccc1)c1cc(Cl)ccc1-2 [8-Chloro-N-methyl-6-phenyl-2H,4H-pyrazolo[3,4-d][2]benzazepine-2-carboxamide]",20,400,,25
